Assay results taken from patent publication US5116877A, “Pharmaceutical use for cinnamamide derivatives” (Taisho Pharmaceutical Co., Ltd., priority 1989, dated 1992).

Experiments:
[1] = system: Anemic Decerebrate rigidity; assay: Inhibition of anemic decerebrate rigidity; assay type: in vivo, male Wistar rats; conditions: rat, in polyethylene glycol 400
Procedure: Experiment 2[Inhibition of Anemic Decerebrate rigidity]
The rigidity animals were prepared according to the method of Fukuda et al [Japan J. Pharmacol., vol. 24, page 810-813 (1974)].
Four male Wistar rats weighing 250 to 350 g were used for each group.
The animals were anesthetized with ethyl ether and carotid artery was ligated bilaterally. A round hole was digged in the suboccipital skeleton and the basal artery was coagulated using a bipolar electrocoagulator. The advanced rigidity occurred on the fore limb with awaking from the ethyl ether anesthesia. The drugs [A; (E)-N-cyclopropyl-3-(3-chlorophenyl)-2-butenamide, B; (E)-N-cyclopropyl-3-(3-fluorophenyl)-2-butenamide, and C; cinflumide] dissolved in polyethylene glycol 400 were each administered intravenously in the amount of 5 mg/kg or 10 mg/kg (0.1 ml per 100 g of rat) to determine the inhibition time of the rigidity.

[2] = system: mesocephalous decerebrate rididity; assay: Inhibition test of the mesocephalous decerebrate rigidity; assay type: in vivo, male Wistar rats; conditions: rat
Procedure: Experiment 1 [Inhibition test of the mesocephalous decerebrate rididity]
The rigidity animals were prepared according to the method of Ono et al [Gen. Pharm., vol. 18, page 57-59 (1987)].
Four male Wistar rats weighing 250 to 350 g were used for each group. The animals were anesthetized with ethyl ether and fixed on a brain stereotaxic apparatus to break the midbrain bilaterally (APO, V-3, L ±1.5). The advanced rigidity occurred in the hind limb with awaking from the ethyl ether anesthesia. The test drugs [A; (E)-N-cyclopropyl-3-(3-chlorophenyl)-2-butenamide, B; (E)-N-cyclopropyl-3-(3-fluorophenyl)-2-butenamide and C; cinflumide] dissolved in propylene glycol were each administered intravenously in the amount of 5 mg/kg or 10 mg/kg (0.1 ml per 100 g of rat), and these test drugs suspended in 0.4% aqueous carboxymethylcellulose solution were each administered intraduodenally in the amount of 50 mg/kg (0.1 ml per 100 g of rat) to determine the inhibition time of the rigidity.

Straub tail reaction = Straub tail reaction (morphine-induced); assay type: in vivo, male ICR mice; conditions: mouse, morphine hydrochloride 15 mg/kg s.c.
Procedure: Experiment 3 [Straub tail reaction]
Test was carried out according to the method of Ellis et al [Neuropharmacology, vol. 13, page 211 to (1974)].
Six male ICR mice weighing 20-30 g were used as the animals for each group. The drugs [A; (E)-N-cyclopropyl-3-(3-chlorophenyl)-2-butenamide, and C; cinflumide] suspended in 0.4% aqueous carboxymethylcellulose solution were each administered orally to the animals in the amounts of 50, 70.7, 100 and 140 mg/kg (0.1 ml per 10 g of mouse). After 15 minutes, 15 mg/kg of morphine hydrochloride were administered subcutaneously. After 30 minutes, the tail-raising reaction was determined. The muscle relaxation activity was judged as positive in case where the drug produces the value of less than 45 degrees of the tail-raising's angle, and the inhibition rate was culculated.

[3] = Japanese Patent Publication No. 60-56700; among known cinnamamide derivatives; cited from earlier work
Acute toxicity test = assay type: in vivo, male ICR mice; conditions: mouse
Procedure: Experiment 5 [Acute toxicity test]
Ten male ICR mice weighing 25 to 34 g were used. (E)-N-cyclopropyl-3-(3-chlorophenyl)-2-butenamide suspended in 0.4% aqueous carboxymethylcellulose solution was each administered orally to mice in the amount of 0.1 ml per 10 g of mice. […] The LD50 values were more than 1 g/kg p.o.

[4] = system: spontaneous motor activity; assay: Spontaneous motor activity test; assay type: in vivo, male ICR mice; conditions: mouse
Procedure: Experiment 4 [Spontaneous motor activity test]
Six male ICR mice weighing 20-30 g were used as the test animals for each group. The test drugs [A: (E)-N-cyclopropyl-3-(3 chlorophenyl)-2-butenamide and B: (E)-N-cyclopropyl-3-(3-fluorophenyl)-2-butenamide] suspended in 0.4% aqueous carboxymethylcellulose solution were each administered orally to mice in the amounts of 50, 70.7 and 100 mg/kg (0.1 ml per 10 g of mouse). The control group were administered with 0.4% aqueous carboxymethylcellulose solution only. After 15 minute, mice were placed in ANIMEX apparatus (manufactured by Muromachi Kikai K.K.) to determine the spontaneous moter activity for 30 minutes

[5] = J. Med. Chem., vol. 9 (No. 5), 675-681 (1966); cited from earlier work
[6] = 5 mg/kg i.v., in propylene glycol
[7] = 10 mg/kg i.v., in propylene glycol
[8] = 50 mg/kg i.d., in 0.4% aqueous carboxymethylcellulose
[9] = 50 mg/kg (head: i.v.; text: orally)
[10] = 70.7 mg/kg (head: i.v.; text: orally)
[11] = 100 mg/kg (head: i.v.; text: orally)
[12] = 140 mg/kg (head: i.v.; text: orally)
[13] = 70.7 mg/kg p.o., control of A 2116.0 ± 256.6, of B 2128.7 ± 228.0

Row | SMILES | length of time during which the inhibition occurs (inhibition time of the rigidity) ([1]; 10 mg/kg i.v.) [min] | length of time during which the inhibition action occurs (inhibition time of the rigidity) [2, 6] [min] | length of time during which the inhibition action occurs (inhibition time of the rigidity) [2, 7] [min] | length of time during which the inhibition action occurs (inhibition time of the rigidity) [2, 8] [min] | inhibition rate (Straub tail reaction) (Straub tail reaction; [9]) [%] | inhibition rate (Straub tail reaction) (Straub tail reaction; [10]) [%] | inhibition rate (Straub tail reaction) (Straub tail reaction; [11]) [%] | inhibition rate (Straub tail reaction) (Straub tail reaction; [12]) [%] | muscle relaxing activity [3] | length of time during which the inhibition occurs (inhibition time of the rigidity) ([1]; 5 mg/kg i.v.) [min] | death (survivals observed for 7 days) (Acute toxicity test; 1 g/kg p.o.) | LD50 at 168 h (Acute toxicity test; in vivo, po) [mg/kg] | Spontaneous motor activity ([4]; 50 mg/kg p.o., control of A 2116.0 ± 256.6) [Counts/30 minutes] | Spontaneous motor activity [4, 13] [Counts/30 minutes] | sedative or taming action [5] | Spontaneous motor activity ([4]; 100 mg/kg p.o., control of B 2128.7 ± 228.0) [Counts/30 minutes]
1 | O=C(/C=C/c1cccc(F)c1)NC1CC1 [C, cinflumide, reference compound] | 8 | 0 | 3 | 0 | 0 | 20 | 80 | 100 | most preferred effect |  |  |  |  |  |  | 
2 | C/C(=C\C(=O)NC1CC1)c1cccc(Cl)c1 [A, (E)-N-cyclopropyl-3-(3-chlorophenyl)-2-butenamide] | 13 | 13 | 37 | 36 | 40 | 40 | 100 | 100 |  | 9 | no death occurred | > 1000 | 1736.0 ± 366.6 | 1570.2 ± 326.9 | showing sedative or taming action | 
3 | C/C(=C\C(=O)NC1CC1)c1cccc(F)c1 [B, (E)-N-cyclopropyl-3-(3-fluorophenyl)-2-butenamide] | 12 | 6 | 12 | 53 |  |  |  |  |  | 8 |  |  |  | 2264.2 ± 506.0 |  | 1667.8 ± 152.4
